In series [1] the test system is SPF ICR mice. Nature of the series: Acute toxicity, single oral dose of 2,000 mg/kg, mice. It is filed as in vivo. The procedure: In addition, the compounds of the present invention were orally administered once at a dose of as high as 2,000 mg/kg into mice. In this regard, 7-week-old male SPF ICR mice (Dae Han Biolink Co. Ltd.) were acclimated to a new environment for one week and they, thus 8 weeks old, were divided into two groups of three. The test group was orally administered once with a dose of 2 g/kg of Compound 10 in a 0.5% CMC solution, while the control was administered with a 0.5% CMC (carboxymethyl cellulose) solution alone. They were monitored for death, clinical signs, change in body weight and the like for a couple of weeks. Autopsies were performed to examine the abnormality of organs.
Therefore, the compounds of the present invention exert no oral acute toxicity on mice even when administered once at a dose of up to 2,000 mg/kg.

Series [2] relates to DGAT. The series can be described thus: Assay for inhibitory effect on DGAT in cell (intracellular triglyceride production from [14C]acetate in HepG2 cells). The following applies: final level 10 μM, DMSO control given as 100. The series is classed as cell-based, human. The procedure: The effect of the benzazole derivatives of Chemical Formula 1 in accordance with the present invention on DGAT was examined with HepG2 cells, hepatic cells derived from the human liver, as follows.
HepG2 cells, purchased from ATCC, were cultured in Eagle's minimum essential medium (MEM), 2 mM L-glutamine, with Earle's balanced salt solution (BSS) adjusted to contain, 1.5 g/L sodium bicarbonate, 0.1 mM non-essential amino acids and 1 mM sodium pyruvate, supplemented with 10% fetal bovine serum (FBS) and 1% antibiotics (100 U/ml penicillin and 100 µg/ml streptomycin) at 37° C. in a 5% CO2 incubator.
Intracellular DGAT activity was represented by the amount of triglycerides produced in the cultured HepG2 cells while the compounds (4, 8, 10, 22, 24, 25, 26, 39 and 31) of Chemical Formula 1 were assayed for inhibitory activity against DGAT by measuring the change in intracellular triglyceride production after the addition thereof.
Cells were plated at a density of 1×10^6 cell/ml per well into 24-well plates and incubated for 24 hours. Then, the medium was exchanged with FBS-free MEM and pre-treated with samples for 1 hour. Thereafter, 0.2 mCi of [^14C]acetate (Amersham) was added as a substrate to the cells, followed by incubation for 1 hour. The production of triglyceride was catalyzed by DGAT so that DGAT activity was determined by the amount of the triglyceride product, which could be measured by radioactivity. For use, the samples were dissolved in dimethyl sulfoxide (DMSO). In a control, triglycerides were synthesized using DMSO without any sample, with the production yield thereof given as 100.
The amount of the glyceride products synthesized was determined as follows. After completion of synthesis, the cells were suspended in PBS (phosphate-buffer-saline) to remove the substrate [^14C]acetate, whether unabsorbed into the cells or remaining unreacted, and total lipids, including triglycerides, were extracted twice for 30 min with 0.5 ml of an extraction solvent mixture (hexane:isopropanol=3:2, v:v). 1 ml of the extract was concentrated with nitrogen gas.
The total lipid residue thus formed was dissolved in an organic solvent mixture (chloroform:methanol=2:1) and loaded dropwise onto a thin layer chromatography plate (TLC; silica gel 60F254, 0.5 mm, Merck) using a mixture of 80:20:1 hexane:diethylether:acetic acid (v:v:v) as a developing solvent. After the separation of triglycerides (Rf value: 0.4) on TLC, the plate was brought into contact with an autoradiographic film for three hours, followed by image analysis (BAS-1500, Fuji Photo Film Co. Ltd.) to determine the [^14C] radioactivity of the triglycerides. The cells left after the extraction were suspended in 0.3 ml of a 0.1 N sodium hydroxide solution to measure the cellular protein concentration thereof.
The empirical values were obtained by dividing triglyceride radioactivity by protein level, with correction for experimental errors between test groups.

For series [3], the system named is DGAT. Nature of the series: Assay for inhibitory activity against DGAT ([14C]triacylglycerol formation, rat microsomal protein). The series is classed as biochemical. The following applies: 25 μM; rat microsomal protein as enzyme source. The text has this:
The derivatives of Chemical Formula 1 in accordance with the present invention are found to inhibit the enzymatic activity of DGAT at a dose-dependent manner (refer to Table 2 and FIG. 1) as measured in a test in which [^14C]triacylglycerol was quantitatively analyzed after enzymatic reaction between 1,2-diacylglycerol and [^14C]palmitoyl-CoA, with microsomal proteins from rats serving as an enzyme source (refer to Example 1).
After enzymatic reaction between two substrates 1,2-diacylglycerol (Sigma, D0138) and [^14C]palmitoyl-CoA (Amersham, CFA583) with the microsomal protein of rat serving as an enzyme source in accordance with Coleman et al, Methods Enzymol., 98-103, 1992, the resulting product [^14C] triacylglycerol was measured for radioactivity. In detail, to a reaction buffer (175 mM Tris-HCl, pH 8.0, 20 μl bovine serum albumin (10 mg/ml), 100 mM MgCl2, 30 μM [^14C] palmitoyl-CoA (0.02 μCi, Amersham) and 200 μM 1,2-dioleoyl glycerol) was added 10 μl of a solution of the samples in dimethylsulfoxide (DMSO) and then 100˜200 μl of an isolated microsomal protein, followed by reaction at 25° C. for 10 min. The reaction was terminated with 1.5 ml of a mixture of 80:20:2 2-propanol:heptane:water (v:v:v). Thereafter, the [^14C] triacylglycerol thus formed was separated. In this regard, 1 ml of heptane and 0.5 ml of distilled water were added to the reaction mixture, which was then shaken. 1 ml of the supernatant thus formed was mixed with 2 ml of an alkaline ethanol solution (ethanol:0.5 N sodium hydroxide:water=50:10:40, v:v:v), followed by shaking. After being taken, 0.65 ml of the supernatant thus formed was measured for radioactivity using an LSC (liquid scintillation counter). The inhibitory activity against DGAT was calculated according to the following Mathematical Formula 1. The inhibitory effects of the benzazole derivatives on DGAT are summarized in Table 2, below while % DGAT inhibition is plotted against doses of compound 22 and 31 in FIG. 1.
T: Cpm of a test group in which a sample was added to an enzymatic buffer,
C: Cpm of a control in which no samples were added to an enzymatic buffer,
B: Cpm of a control in which a sample was added in the absence of any enzyme source.

Each structure is given as a SMILES string.

In the case of `NS(=O)(=O)c1ccc2oc(COc3ccc(Cl)cc3Cl)nc2c1` [Cpd. 10, 2-(2,4-dichloro-phenoxymethyl)-benzoxazole-5-sulfonic acid amide], the Mortality in series [1] (single oral 2 g/kg in 0.5% CMC, No. of Dead/No of Tested) is reported as 0/3. For the same compound, in series [1] (single oral 2 g/kg, Day 0, Mean ± SD), the “Body Weight (g) Day 0” value worked out at 35 ± 0.5 g. Moreover, the “Body Weight (g) Day 1” value in series [1] (single oral 2 g/kg, Day 1, Mean ± SD) is recorded as 37 ± 0.5 g. Moreover, the “Body Weight (g) Day 3” value in series [1] (single oral 2 g/kg, Day 3, Mean ± SD) worked out at 37 ± 0.6 g. Moreover, the “Body Weight (g) Day 7” value in series [1] (single oral 2 g/kg, Day 7, Mean ± SD) was found to be 39 ± 1.6 g. The “Body Weight (g) Day 14” value in series [1] (single oral 2 g/kg, Day 14, Mean ± SD) stood at 42 ± 0.8 g. Moreover, the “Production Yield of Triglyceride (%)” value in series [2] turned out to be 98.7 ± 6.3%. The “DGAT (% inhibition in 25 μM)” value in series [3] was determined as 17.43%.

The values are drawn from patent publication US8304448B2, “Method for the treatment of metabolic disorder containing benzazole derivatives as an active ingredient” (Korea Research Institute of Bioscience and Biotechnology, priority 2006, dated 2012).
